pEC50: −log10 of the molar value. Several values for one entry are separate records, joined by “and”; a condition that tells them apart may be missing. Identical values can stand only once. Marks after values point to notes of the source that are not given here.
Assays:
human TLR8 = human TLR8 (Homo sapiens (Human), UniProt Q9NR97); assay: TLR8 reporter cell assay (HEK293-TLR-NF-κB inducible SEAP reporter); assay type: cell-based; conditions: incubation with resiquimod
From the text: The engagement of TLRs by cognate ligands triggers downstream signaling cascades, leading to the activation of NF-κB and other transcription factors which initiate various immunomodulatory effects. The human embryonic kidney cell line, HEK293, is essentially non-responsive to TLR agonists, but ectopic expression of TLRs in these cells allows cognate agonists to activate endogenous NF-κB. Accordingly, the HEK293-TLR-NF-κB inducible reporter system is used to assay TLR agonists. HEK293 cell lines stably expressing human TLR7 or TLR8 together with an NF-κB-driven-secreted alkaline phosphatase (SEAP) reporter were invented at InvivoGen (San Diego, Calif., USA) and used to assess compounds of the present invention for TLR7 and TLR8 agonist activities. Cells were seeded at 2-5×10^4 cells/well in 96 well plates ([…]) and treated with various concentrations of compound (10 μl) for 15-24 hours. SEAP activity was determined by measuring OD at 650 nm; the media used to culture the cell lines contains the reagents required for SEAP detection. […]

[1] = system: interferon-α production in hPBMCs; assay: Induction of interferon-α production in hPBMCs; assay type: cell-based, human; conditions: interferon-α production from hPBMCs; for Weighted MEC: geometric mean of all individual MECs across all donors, 24 hours; for individual MEC values: per donor
Experimental: Treatment of hPBMCs with a TLR7 agonist typically induces substantial production of interferon-α as well as lesser amounts of a variety of other cytokines and chemokines. A typical experiment uses hPBMCs isolated from a healthy donor and placed in replicate cell culture wells; typically 1.0-7.5×10^6 cells are placed in each well. Test compound is added and the cells cultured for 24 hours at 37° C. in a humidified atmosphere containing 5% CO2 post-addition; untreated controls are included. Secreted interferon-α production is measured using an a multisubtype interferon-α ELISA kit like those from PBL Assay Sciences or specifically as IFNα2a as part of a panel of cytokines and chemokines using luminex methodologies. The minimal effective concentration (MEC) is the minimum concentration in a dose response curve where a significant increase in interferon-α production (generally at least 20 pg/ml) is observed above baseline. MEC values for each compound are determined for at least three donors. The weighted MEC for each compound is the geometric mean of all individual MECs across all donors. Concentrations tested typically consist of a two-fold dilution series starting at 100 μM. In the calculation of weighted MEC, any value >100 μM is arbitrarily set to 200 μM unless all MECs for a compound exceed 100 μM

[2] = system: B16-F10 rodent melanoma tumor cells; assay: Antitumor activity in rodent model (B16-F10 syngenic); assay type: in vivo, mice; conditions: IV by tail vein, 10 total doses, two weeks after randomization
Experimental: B16-F10 rodent melanoma tumor cells were injected into the flank of 32 mice in a syngenic model. […] Administration of the drugs was initiated on the following day. Tumor volumes were monitored for two weeks.

human TLR7 = human TLR7 (Homo sapiens (Human), UniProt Q9NYK1); assay: TLR7 reporter assay (HEK293-TLR-NF-κB inducible SEAP reporter); assay type: cell-based; conditions: HEK293 cells stably expressing human TLR7 with NF-κB-driven SEAP reporter; 15-24 hours
Sequence of human TLR7 (Q9NYK1 27-1049): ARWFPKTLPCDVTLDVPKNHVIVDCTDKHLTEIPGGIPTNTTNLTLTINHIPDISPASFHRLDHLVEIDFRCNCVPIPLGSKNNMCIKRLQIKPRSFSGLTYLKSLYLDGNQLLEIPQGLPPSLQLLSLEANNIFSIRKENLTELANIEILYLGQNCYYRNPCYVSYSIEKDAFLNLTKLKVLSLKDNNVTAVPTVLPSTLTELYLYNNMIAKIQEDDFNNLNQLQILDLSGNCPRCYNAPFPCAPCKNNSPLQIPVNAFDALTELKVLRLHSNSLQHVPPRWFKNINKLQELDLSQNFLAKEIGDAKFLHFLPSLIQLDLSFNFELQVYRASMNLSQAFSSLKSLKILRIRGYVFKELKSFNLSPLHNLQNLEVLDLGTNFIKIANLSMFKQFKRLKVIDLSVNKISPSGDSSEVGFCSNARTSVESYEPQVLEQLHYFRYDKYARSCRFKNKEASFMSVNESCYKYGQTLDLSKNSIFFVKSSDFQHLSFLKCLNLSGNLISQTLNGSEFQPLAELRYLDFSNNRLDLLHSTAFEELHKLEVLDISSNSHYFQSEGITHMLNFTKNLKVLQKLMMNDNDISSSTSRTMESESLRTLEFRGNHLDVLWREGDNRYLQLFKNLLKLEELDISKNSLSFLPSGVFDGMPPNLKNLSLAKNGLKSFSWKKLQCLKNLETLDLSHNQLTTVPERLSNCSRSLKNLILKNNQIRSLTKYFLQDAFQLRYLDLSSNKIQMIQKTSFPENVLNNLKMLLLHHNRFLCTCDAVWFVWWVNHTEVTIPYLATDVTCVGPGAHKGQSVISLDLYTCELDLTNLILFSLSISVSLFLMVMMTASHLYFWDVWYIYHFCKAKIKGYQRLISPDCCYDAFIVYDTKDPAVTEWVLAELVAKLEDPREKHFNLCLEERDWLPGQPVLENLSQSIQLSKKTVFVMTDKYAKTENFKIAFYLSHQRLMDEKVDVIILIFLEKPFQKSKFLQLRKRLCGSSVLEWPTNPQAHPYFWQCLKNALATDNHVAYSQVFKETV
From the text: The engagement of TLRs by cognate ligands triggers downstream signaling cascades, leading to the activation of NF-κB and other transcription factors which initiate various immunomodulatory effects. The human embryonic kidney cell line, HEK293, is essentially non-responsive to TLR agonists, but ectopic expression of TLRs in these cells allows cognate agonists to activate endogenous NF-κB. Accordingly, the HEK293-TLR-NF-κB inducible reporter system is used to assay TLR agonists. HEK293 cell lines stably expressing human TLR7 or TLR8 together with an NF-κB-driven-secreted alkaline phosphatase (SEAP) reporter were invented at InvivoGen (San Diego, Calif., USA) and used to assess compounds of the present invention for TLR7 and TLR8 agonist activities. Cells were seeded at 2-5×10^4 cells/well in 96 well plates ([…]) and treated with various concentrations of compound (10 μl) for 15-24 hours. SEAP activity was determined by measuring OD at 650 nm; the media used to culture the cell lines contains the reagents required for SEAP detection. The EC50 values in Table 2 are calculated from fitting the dose response of measured SEAP activity for each compound to the following equation: Y=ymax*c^nh/(EC50^nh+c^nh)+blank where Y is the experimentally measured OD650 at concentration c of test article, blank is the observed OD650 in the absence of TLR7 agonist, ymax is the difference between the measured OD650 in the presence of either 28.5 μM resiquimod or 1.675 μM CL307 and the blank and values of EC50 and nh are determined by nonlinear least squares analysis.

[3] = cynomolgus monkeys, from Table 23 of U.S. Pat. No. 7,575,068 B2, cited from earlier work; for % F (percent bioavailability of loxoribine administered as prodrug): oral prodrug of loxoribine
[4] = Oral bioavailability in cynomolgus monkeys; assay type: in vivo; conditions: vs loxoribine administered orally as itself or as prodrugs
Experimental: From two to four male or female cynomolgus monkeys were used for animal testing studies. The study compounds were formulated in a vehicle (e.g. 50 mM Phosphate Buffered Saline, pH 7.4) appropriate for animal oral or intravenous administration. Parent compounds 1, 5, 26 and 27 were administered at 1 mg/kg by IV administration whereas prodrugs of the corresponding compounds were administered at 2 mg/kg. After dosing, 0.5 mL blood samples were collected typically at 0.083, 0.33, 1, 2, 4, 6, 8, 12 and 24 hours post-dosing (iv administration) or 0.25, 0.5, 1, 2, 4, 6, 8, 12 and 24 hours post-dosing (oral administration). Plasma was separated from blood and analyzed for the active agonists by well-known LC-MS techniques. […] Percent bioavailability (F %) of compounds when administered orally as prodrug was calculated from the ratio of dose-normalized AUC of parent from oral prodrug administration to that of dose-normalized parent AUC from IV parent administration and reported in Table 4.

Sequence of human TLR8 (Q9NR97 27-1041): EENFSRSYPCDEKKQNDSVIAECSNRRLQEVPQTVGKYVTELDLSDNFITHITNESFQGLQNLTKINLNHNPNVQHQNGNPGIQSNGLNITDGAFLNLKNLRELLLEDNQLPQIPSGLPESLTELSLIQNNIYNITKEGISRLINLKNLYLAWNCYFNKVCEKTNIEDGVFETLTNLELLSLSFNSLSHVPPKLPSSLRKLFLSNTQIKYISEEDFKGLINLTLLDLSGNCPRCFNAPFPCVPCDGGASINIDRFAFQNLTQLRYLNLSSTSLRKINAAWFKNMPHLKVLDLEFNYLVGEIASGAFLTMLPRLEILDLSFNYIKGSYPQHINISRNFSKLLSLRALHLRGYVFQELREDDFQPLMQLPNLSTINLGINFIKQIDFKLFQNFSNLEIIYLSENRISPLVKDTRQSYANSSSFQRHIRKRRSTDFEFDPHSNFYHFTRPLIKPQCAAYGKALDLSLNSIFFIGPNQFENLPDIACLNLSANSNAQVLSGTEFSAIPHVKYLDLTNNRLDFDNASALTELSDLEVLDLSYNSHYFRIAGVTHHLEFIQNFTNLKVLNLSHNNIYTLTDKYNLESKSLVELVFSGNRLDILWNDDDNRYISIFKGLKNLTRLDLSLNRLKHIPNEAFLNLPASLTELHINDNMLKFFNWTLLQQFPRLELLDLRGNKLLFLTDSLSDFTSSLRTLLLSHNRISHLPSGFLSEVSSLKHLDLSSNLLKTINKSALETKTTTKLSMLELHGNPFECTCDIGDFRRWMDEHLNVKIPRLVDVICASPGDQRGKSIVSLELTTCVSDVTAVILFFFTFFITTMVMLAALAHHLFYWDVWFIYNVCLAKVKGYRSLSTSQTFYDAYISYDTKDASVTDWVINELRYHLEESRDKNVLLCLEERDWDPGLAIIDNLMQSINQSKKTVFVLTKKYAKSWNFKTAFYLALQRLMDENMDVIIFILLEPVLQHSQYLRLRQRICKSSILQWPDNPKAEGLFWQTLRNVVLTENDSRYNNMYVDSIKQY

Row | Structure (SMILES) | Weighted MEC [1] | individual MEC values [1] | pEC50 (human TLR7) | % F (percent bioavailability of loxoribine administered as prodrug) [3] | further results
1 | CCOCc1nc2c(N)nc3ccccc3c2n1CC(C)(C)O [resiquimod] | – | – | – | – | induction of SEAP production in the TLR8 reporter cell assay (human TLR8): Substantial induction of SEAP production
2 | C#CCn1c(=O)n([C@@H]2O[C@H](CO)[C@H](O)[C@H]2O)c2nc(N)[nH]c(=O)c21 [Compound 5, 2-Amino-9-((2R,3R,4R,5R)-3,4-dihydroxy-5-(hydroxymethyl)tetrahydrofuran-2-yl)-7-(prop-2-yn-1-yl)-7,9-dihydro-1H-purine-6,8-dione] | less than or equal to 40 μM and 34 μM | < 100 µM | 3.53 | – | Mean tumor growth inhibition (% TGI) versus the control group ([2]; group (ii): 40 mg/kg, BID for five consecutive days): 40%; Mean tumor growth inhibition (% TGI) versus the control group ([2]; group (iii): 40 mg/kg, BID every other day): 64%
3 | C=CCn1c(=O)n([C@@H]2O[C@H](CO)[C@@H](O)[C@H]2O)c2nc(N)ncc21 [7-allyl-2-amino-9-β-D-ribofuranosyl-7,9-dihydropurin-8-one] | – | – | – | 13% | –
4 | C=CCn1c(=O)n([C@@H]2O[C@H](CO)[C@@H](O)[C@H]2O)c2nc(N)nc(OCC)c21 [7-allyl-2-amino-6-ethoxy-9-β-D-ribofuranosyl-7,9-dihydropurin-8-one] | – | – | – | 9% | –
5 | C=CCn1c(=O)n([C@@H]2O[C@H](CO)[C@@H](O)[C@H]2O)c2nc(N)[nH]c(=O)c21 [loxoribine, reference compound] | 136* μM | – | 3.49 | – | % F (intrinsic bioavailability of loxoribine) ([3]; loxoribine administered orally as loxoribine itself): 2%^b
6 | C#CCn1c(=O)n([C@@H]2O[C@H](CO)[C@@H](F)[C@H]2O)c2nc(N)[nH]c(=O)c21 [Compound 27, 2-Amino-9-((2R,3S,4S,5R)-4-fluoro-3-hydroxy-5-(hydroxymethyl)tetrahydrofuran-2-yl)-7-(prop-2-yn-1-yl)-7,9-dihydro-1H-purine-6,8-dione] | less than or equal to 40 μM and 23 μM | < 100 µM | 3.42 | – | Systemic delivery by prodrugs compared with loxoribine [4]: substantially greater than loxoribine
